The test system of assay [1] is IFNα stimulated Kit225 T cells (STAT-dependent luciferase reporter). In words: Kit225 T cell assay, IFNα-stimulated STAT-dependent luciferase reporter. Format: cell-based, human. The conditions noted are these: 200 U/mL human recombinant IFNα, 5-6 hours, read-out: IFNα Kit225 Reporter (IC50). Here is the method:
(§1) Kit225 T cells with a stably-integrated STAT-dependent luciferase reporter were plated in RPMI (Gibco) containing 10% heat-inactivated FBS (Gibco) and 100 U/mL PenStrep (Gibco). The cells were then stimulated with either 20 ng/mL human recombinant IL-23 or 200 U/mL human recombinant IFNα (PBL InterferonSource) for 5-6 hours. Luciferase expression was measured using the STEADY-GLO® Luciferase Assay System (Promega) according to the manufacturer's instructions. Inhibition data were calculated by comparison to no inhibitor control wells for 0% inhibition and non-stimulated control wells for 100% inhibition.

The subject of assay [2] is IL-23 stimulated Kit225 T cells (STAT-dependent luciferase reporter). As to the kind of experiment: Kit225 T cell assay, IL-23-stimulated STAT-dependent luciferase reporter. It is filed as cell-based, human. The conditions noted are these: 20 ng/mL human recombinant IL-23, 5-6 hours, read-out: IL-23 Kit225 Reporter (IC50). Here is the method:
as §1
Background: Reporter assays use an easily measured gene product as a stand-in for the process of interest.

Where two headings read alike, the source gives them in different places.

The term IC50 denotes the midpoint of a concentration-inhibition curve. On to `CNC(=O)c1nnc(Nc2ccccn2)cc1Nc1cccc(-c2ccnn2C)c1OC` [Example 199], for which the half-inhibitory concentration (IC50) stood at 230 nM in assay [1] and 190 nM in assay [2].
In the case of `CNC(=O)c1nnc(NC(=O)C2CC2)cc1Nc1cccc(-c2n[nH]c(C)n2)c1OC` [Example 141], the IC50 is 20 nM in assay [1] and 40 nM in assay [2].
In the case of `[2H]C([2H])([2H])NC(=O)c1nnc(NC(=O)C2CC2)cc1Nc1cccc(-c2nc(C)nn2C)c1OC` [Example 182], the IC50 turned out to be 80 nM in assay [1] (KIT225) and 190 nM in assay [2] (KIT225).
On to `CNC(=O)c1nnc(Nc2ccccn2)cc1Nc1cccc(C(=O)NC2CC2)c1OC` [Example 165], for which the IC50 in assay [1] turned out to be 230 nM; in assay [2] it was 340 nM.
On to `[2H]C([2H])([2H])NC(=O)c1nnc(NC(=O)C2CC2)cc1Nc1cccc(-c2nc(C)n(C)n2)c1OC` [Example 181], for which the values for the concentration for half-maximal inhibition (IC50) in assay [1] (KIT225) and in assay [2] (KIT225) were 20 nM and 40 nM, respectively.
As for `CNC(=O)c1nnc(Nc2ccccn2)cc1Nc1cccc(-c2ncnn2C)c1OC` [Example 178], the 50% inhibitory concentration (IC50) in assay [1] was determined as 10 nM; in assay [2], 30 nM.
Take `CNC(=O)c1nnc(Nc2cc(C)n(C)n2)cc1Nc1cccc(-c2c[nH]nn2)c1OC` [Example 193]: the IC50 in assay [1] was 40 nM; in assay [2] it was 30 nM.
Consider `CCc1cc(Nc2cc(Nc3ccccc3S(C)(=O)=O)c(C(=O)NC)nn2)nc(C)n1` [Example 47], for which the IC50 in assay [1] is 20 nM; in assay [2], 50 nM.
For `CNC(=O)c1nnc(Nc2cc(C)nc(COC)n2)cc1Nc1ccccc1S(C)(=O)=O` [Example 41], in that order: 190 nM and 160 nM.
For `CNC(=O)c1nnc(Nc2cc(C)c(F)cn2)cc1Nc1cccc(-c2cscn2)c1OC` [Example 129], in that order: 10 nM and 20 nM.
In the case of `CNC(=O)c1nnc(Nc2cc(C#N)ccn2)cc1Nc1ccccc1S(C)(=O)=O` [Example 25], the IC50 in assay [1] stood at 80 nM; in assay [2], 140 nM.
In the same order, the values of `CNC(=O)c1nnc(NC(=O)C2CC2)cc1Nc1cccc(-c2nccs2)c1OC` [Example 105] are 140 nM and 180 nM.
In the same order, the values of `CNC(=O)c1nnc(Nc2cc(C)ncn2)cc1Nc1cccc(-c2ncn(C)n2)c1OC` [Example 109] are 7.13 nM and 10 nM.
In the same order, the values of `CNC(=O)c1nnc(Nc2cccnn2)cc1Nc1cccc(-c2ncccn2)c1OC` [Example 123] are 6.81 nM and 5.9 nM.
For `CNC(=O)c1nnc(Nc2cc(OC(C)C)nc(C)n2)cc1Nc1ccccc1S(C)(=O)=O` [Example 44], the IC50 in assay [1] came to 100 nM; in assay [2], 250 nM.
`[2H]C([2H])([2H])NC(=O)c1nnc(NC(=O)C2CC2)cc1Nc1cccc(C#N)c1OC` [Example 202, 4-((3-cyano-2-methoxyphenyl)amino)-6-(cyclopropanecarboxamido)-N-trideuteromethylpyridazine-3-carboxamide]: the IC50 amounted to 330 nM in assay [1] (KIT225) and 290 nM in assay [2] (KIT225).
For `CNC(=O)c1nnc(Nc2cc(CO)ccn2)cc1Nc1cccc(-c2ncn(C)n2)c1OC` [Example 110], the IC50 in assay [1] was found to be 20 nM; in assay [2] it was 80 nM.
With `CNC(=O)c1nnc(Nc2cc(C(F)(F)F)ccn2)cc1Nc1ccccc1S(C)(=O)=O` [Example 35], the 50% inhibitory concentration (IC50) in assay [1] turned out to be 40 nM; in assay [2] it was 210 nM.
In the same order, the values of `CNC(=O)c1nnc(Nc2cc(OC)ccn2)cc1Nc1cccc(-c2ncn(C)n2)c1OC` [Example 133] are 3.81 nM and 8.03 nM.
For `CNC(=O)c1nnc(NC(=O)C2CC2)cc1Nc1cccc(-c2cnn(C)n2)c1OC` [Example 136], in that order: 6.04 nM and 20 nM.
Take `[2H]C([2H])([2H])NC(=O)c1nnc(NC(=O)C2CC2)cc1Nc1cccc(-c2cc(C)[nH]n2)c1OC` [Example 200]: the half-maximal inhibitory concentration (IC50) came to 30 nM in assay [1] (KIT225) and 80 nM in assay [2] (KIT225).
As for `CNC(=O)c1nnc(NC(=O)C2CC2)cc1Nc1cccc(-c2ncc(C)s2)c1OC` [Example 101], the IC50 in assay [1] worked out at 60 nM; in assay [2] it was 100 nM.
As to `CNC(=O)c1nnc(Nc2ccccn2)cc1Nc1cccc(-c2ccncn2)c1OC` [Example 96], the 50% inhibitory concentration (IC50) in assay [1] turned out to be 7.38 nM; in assay [2] it was 40 nM.
On to `CNC(=O)c1nnc(NC(=O)C2CC2)cc1Nc1cccc(-c2cnn(C)c2)c1OC` [Example 63], for which the IC50 is 60 nM in assay [1] and 40 nM in assay [2].
Regarding `CNC(=O)c1nnc(Nc2cc(C)nc(C)n2)cc1Nc1cccc(-c2nc(C)nn2C)c1OC` [Example 184], the half-inhibitory concentration (IC50) in assay [1] came to 7.2 nM; in assay [2], 6.41 nM.
On to `CNC(=O)c1nnc(Nc2cnc(C)cn2)cc1Nc1cccc(-c2ncccn2)c1OC` [Example 113], for which the 50% inhibitory concentration (IC50) in assay [1] was determined as 4.41 nM; in assay [2], 30 nM.
Turning to `CNC(=O)c1nnc(Nc2cc(C)n(C)n2)cc1Nc1cccc(-c2n[nH]c(C)n2)c1OC` [Example 148], the 50% inhibitory concentration (IC50) in assay [1] came to 10 nM; in assay [2], 20 nM.
In the same order, the values of `CNC(=O)c1nnc(NC(=O)C2CC2)cc1Nc1cccc(-c2cnn(CC(C)(C)O)c2)c1OC` [Example 189] are 30 nM and 150 nM.
`CNC(=O)c1nnc(Nc2ccnc(C)n2)cc1Nc1cccc(-c2ncn(C)n2)c1OC` [Example 103]: the results for the IC50 in assay [1] and in assay [2] were 6.06 nM and 20 nM, respectively.
For `CNC(=O)c1nnc(Nc2cc(OC)ncn2)cc1Nc1cccc(-c2ncn(C)n2)c1OC` [Example 88], in that order: 9.97 nM and 20 nM.
Take `CNC(=O)c1nnc(Nc2ccccn2)cc1Nc1cccc(C(=O)NCCC(C)(C)O)c1OC` [Example 168]: the IC50 in assay [1] amounted to 80 nM; in assay [2] it was 100 nM.
In the same order, the values of `CNC(=O)c1nnc(Nc2cc(OC)ncn2)cc1Nc1ccccc1S(C)(=O)=O` [Example 42] are 260 nM and 150 nM.
Regarding `CNC(=O)c1nnc(Nc2cc(C(C)O)ccn2)cc1Nc1ccccc1S(C)(=O)=O` (stereo not shown) [Example 48], the values for the IC50 in assay [1] and in assay [2] were 110 nM and 330 nM, respectively.
For `CNC(=O)c1nnc(NC(=O)C2CC2)cc1Nc1cccc(-c2nnc(C)o2)c1OC` [Example 149], in that order: 50 nM and 170 nM.
For `CNC(=O)c1nnc(Nc2cc(C(C)O)ccn2)cc1Nc1cccc(-c2cscn2)c1OC` (stereo not shown) [Example 157], in that order: 150 nM and 230 nM.
Take `CNC(=O)c1nnc(Nc2ccccn2)cc1Nc1cccc(C(=O)NCC(C)(C)O)c1OC` [Example 166]: the values for the half-maximal inhibitory concentration (IC50) in assay [1] and in assay [2] were 210 nM and 270 nM, respectively.
Turning to `CNC(=O)c1nnc(Nc2cc(C)c(F)cn2)cc1Nc1cccc(-c2ncc(C)s2)c1OC` [Example 124], the IC50 in assay [1] is 490 nM; in assay [2], 700 nM.
In the same order, the values of `CNC(=O)c1nnc(Nc2cc(C)n(C)n2)cc1Nc1cccc(-c2ncccn2)c1OC` [Example 92] are 8.63 nM and 40 nM.
For `CNC(=O)c1nnc(Nc2cc(C)c(C)cn2)cc1Nc1ccccc1S(C)(=O)=O` [Example 20], in that order: 20 nM and 20 nM.
In the same order, the values of `CNC(=O)c1nnc(Nc2ccc(F)cn2)cc1Nc1cccc(-c2ccn(C)n2)c1OC` [Example 55] are 20 nM and 20 nM.
As to `CNC(=O)c1nnc(Nc2ccc(F)cn2)cc1Nc1cccc(-c2nccc(C)n2)c1OC` [Example 83], the IC50 in assay [1] turned out to be 40 nM; in assay [2] it was 50 nM.
In the same order, the values of `CNC(=O)c1nnc(Nc2ccc(C)nn2)cc1Nc1cccc(-c2ncccn2)c1OC` [Example 122] are 3.2 nM and 30 nM.
On to `CNC(=O)c1nnc(Nc2ccccn2)cc1Nc1cccc(-c2noc(C)n2)c1OC` [Example 206], for which the IC50 in assay [1] (KIT225) is 0.712 nM; in assay [2] (KIT225), 4.38 nM.
Regarding `CCOc1ccnc(Nc2cc(Nc3ccccc3S(C)(=O)=O)c(C(=O)NC)nn2)c1` [Example 37], the IC50 was determined as 80 nM in assay [1] and 540 nM in assay [2].
For `CNC(=O)c1nnc(Nc2ccn(C)n2)cc1Nc1cccc(-c2ncccn2)c1OC` [Example 111], in that order: 10 nM and 30 nM.
For `CNC(=O)c1nnc(Nc2cc(C(C)(C)O)ccn2)cc1Nc1ccccc1S(C)(=O)=O` [Example 50], in that order: 490 nM and 310 nM.
In the same order, the values of `CNC(=O)c1nnc(NC(=O)C2CC2)cc1Nc1cccc(-c2cn(C(C)C)nn2)c1OC` [Example 190] are 20 nM and 20 nM.
For `CNC(=O)c1nnc(NC(=O)C2CC2)cc1Nc1cccc(-c2ncn(C)n2)c1OC` [Example 67], the figures for the IC50 in assay [1] and in assay [2] were 70 nM and 100 nM, respectively.
In the case of `[2H]C([2H])([2H])NC(=O)c1nnc(NC(=O)C2CC2)cc1Nc1cccc(-c2ccn(CC(C)(C)O)n2)c1OC` [Example 196], the IC50 in assay [1] (KIT225) came out at 160 nM; in assay [2] (KIT225) it was 70 nM.
In the same order, the values of `[2H]C([2H])([2H])NC(=O)c1nnc(NC(=O)C2CC2)cc1Nc1cccc(-c2nc(C)no2)c1OC` [Example 162, 6-(cyclopropanecarboxamido)-4-((2-methoxy-3-(3-methyl-1,2,4-oxadiazol-5-yl)phenyl)amino)-N-trideuteromethylpyridazine-3-carboxamide] are 60 nM and 120 nM.

These data come from US11021475B2, “Amide-substituted heterocyclic compounds useful as modulators of IL-12, IL-23 and/or IFN alpha responses” (Bristol-Myers Squibb Company, priority 2012, dated 2021).
